From ChEMBL document CHEMBL1147101, “Development and persistence of antimicrobial resistance in Pseudomonas aeruginosa: a longitudinal observation in mechanically ventilated patients” (Antimicrob Agents Chemother, 2007)
Active and inactive are the calls of the source.

Key:
Type in all cases: functional, organism-based
Details in all cases: Trachea
[1] = system: Pseudomonas aeruginosa; assay: Antimicrobial activity against Pseudomonas aeruginosa 65.38-4 tracheal isolates from mechanically ventilated tuberculosis patient
[2] = system: Pseudomonas aeruginosa; assay: Antimicrobial activity against Pseudomonas aeruginosa 13D11 tracheal isolates from mechanically ventilated chronic respiratory insufficiency patient
[3] = system: Pseudomonas aeruginosa; assay: Antimicrobial activity against Pseudomonas aeruginosa 15G10 tracheal isolates from mechanically ventilated chronic respiratory insufficiency patient
[4] = system: Pseudomonas aeruginosa; assay: Antimicrobial activity against Pseudomonas aeruginosa 65.68-4 tracheal isolates from mechanically ventilated tuberculosis patient
[5] = system: Pseudomonas aeruginosa; assay: Antimicrobial activity against Pseudomonas aeruginosa 13D3 tracheal isolates from mechanically ventilated chronic respiratory insufficiency patient
[6] = system: Pseudomonas aeruginosa; assay: Antimicrobial activity against Pseudomonas aeruginosa 13D6 tracheal isolates from mechanically ventilated chronic respiratory insufficiency patient
[7] = system: Pseudomonas aeruginosa; assay: Antimicrobial activity against Pseudomonas aeruginosa 16D2 tracheal isolates from mechanically ventilated chronic respiratory insufficiency patient
[8] = system: Pseudomonas aeruginosa; assay: Antimicrobial activity against Pseudomonas aeruginosa 19B1 tracheal isolates from mechanically ventilated chronic respiratory insufficiency patient
[9] = system: Pseudomonas aeruginosa; assay: Antimicrobial activity against Pseudomonas aeruginosa 19B3 tracheal isolates from mechanically ventilated chronic respiratory insufficiency patient
[10] = system: Pseudomonas aeruginosa; assay: Antimicrobial activity against Pseudomonas aeruginosa 19C2 tracheal isolates from mechanically ventilated chronic respiratory insufficiency patient
[11] = system: Pseudomonas aeruginosa; assay: Antimicrobial activity against Pseudomonas aeruginosa 19C5 tracheal isolates from mechanically ventilated chronic respiratory insufficiency patient
[12] = system: Pseudomonas aeruginosa; assay: Antimicrobial activity against Pseudomonas aeruginosa 19C7 tracheal isolates from mechanically ventilated chronic respiratory insufficiency patient
[13] = system: Pseudomonas aeruginosa; assay: Antimicrobial activity against Pseudomonas aeruginosa 19C12 tracheal isolates from mechanically ventilated chronic respiratory insufficiency patient
[14] = system: Pseudomonas aeruginosa; assay: Antimicrobial activity against Pseudomonas aeruginosa 19D10 tracheal isolates from mechanically ventilated chronic respiratory insufficiency patient
[15] = system: Pseudomonas aeruginosa; assay: Antimicrobial activity against Pseudomonas aeruginosa 3E2 tracheal isolates from mechanically ventilated chronic respiratory insufficiency patient
[16] = system: Pseudomonas aeruginosa; assay: Antimicrobial activity against Pseudomonas aeruginosa 5F2 tracheal isolates from mechanically ventilated chronic respiratory insufficiency patient
[17] = system: Pseudomonas aeruginosa; assay: Antimicrobial activity against Pseudomonas aeruginosa 8A2 tracheal isolates from mechanically ventilated chronic respiratory insufficiency patient
[18] = system: Pseudomonas aeruginosa; assay: Antimicrobial activity against Pseudomonas aeruginosa 8C4 tracheal isolates from mechanically ventilated chronic respiratory insufficiency patient
[19] = system: Pseudomonas aeruginosa; assay: Antimicrobial activity against Pseudomonas aeruginosa 9A7 tracheal isolates from mechanically ventilated chronic respiratory insufficiency patient
[20] = system: Pseudomonas aeruginosa; assay: Antimicrobial activity against Pseudomonas aeruginosa 29H1 tracheal isolates from mechanically ventilated chronic respiratory insufficiency patient
[21] = system: Pseudomonas aeruginosa; assay: Antimicrobial activity against Pseudomonas aeruginosa 19E1 tracheal isolates from mechanically ventilated chronic respiratory insufficiency patient
[22] = system: Pseudomonas aeruginosa; assay: Antimicrobial activity against Pseudomonas aeruginosa 19E12 tracheal isolates from mechanically ventilated chronic respiratory insufficiency patient
[23] = system: Pseudomonas aeruginosa; assay: Antimicrobial activity against Pseudomonas aeruginosa 19F1 tracheal isolates from mechanically ventilated chronic respiratory insufficiency patient
[24] = system: Pseudomonas aeruginosa; assay: Antimicrobial activity against Pseudomonas aeruginosa 19F2 tracheal isolates from mechanically ventilated chronic respiratory insufficiency patient
[25] = system: Pseudomonas aeruginosa; assay: Antimicrobial activity against Pseudomonas aeruginosa 22D9 tracheal isolates from mechanically ventilated chronic respiratory insufficiency patient
[26] = system: Pseudomonas aeruginosa; assay: Antimicrobial activity against Pseudomonas aeruginosa 22E3 tracheal isolates from mechanically ventilated chronic respiratory insufficiency patient
[27] = system: Pseudomonas aeruginosa; assay: Antimicrobial activity against Pseudomonas aeruginosa 24D5 tracheal isolates from mechanically ventilated chronic respiratory insufficiency patient
[28] = system: Pseudomonas aeruginosa; assay: Antimicrobial activity against Pseudomonas aeruginosa 24E1 tracheal isolates from mechanically ventilated chronic respiratory insufficiency patient
[29] = system: Pseudomonas aeruginosa; assay: Antimicrobial activity against Pseudomonas aeruginosa 24E2 tracheal isolates from mechanically ventilated chronic respiratory insufficiency patient
[30] = system: Pseudomonas aeruginosa; assay: Antimicrobial activity against Pseudomonas aeruginosa 24E6 tracheal isolates from mechanically ventilated chronic respiratory insufficiency patient
[31] = system: Pseudomonas aeruginosa; assay: Antimicrobial activity against Pseudomonas aeruginosa 23C5 tracheal isolates from mechanically ventilated chronic respiratory insufficiency patient
[32] = system: Pseudomonas aeruginosa; assay: Antimicrobial activity against Pseudomonas aeruginosa 65.33-3 tracheal isolates from mechanically ventilated tuberculosis patient
[33] = system: Pseudomonas aeruginosa; assay: Antimicrobial activity against Pseudomonas aeruginosa 65.36-2 tracheal isolates from mechanically ventilated tuberculosis patient
[34] = system: Pseudomonas aeruginosa; assay: Antimicrobial activity against Pseudomonas aeruginosa 65.36-3 tracheal isolates from mechanically ventilated tuberculosis patient
[35] = system: Pseudomonas aeruginosa; assay: Antimicrobial activity against Pseudomonas aeruginosa 65.36-4 tracheal isolates from mechanically ventilated tuberculosis patient
[36] = system: Pseudomonas aeruginosa; assay: Antimicrobial activity against Pseudomonas aeruginosa 65.38-2 tracheal isolates from mechanically ventilated tuberculosis patient
[37] = system: Pseudomonas aeruginosa; assay: Antimicrobial activity against Pseudomonas aeruginosa 2A3 tracheal isolates from mechanically ventilated tuberculosis patient
[38] = system: Pseudomonas aeruginosa; assay: Antimicrobial activity against Pseudomonas aeruginosa 2B5 tracheal isolates from mechanically ventilated tuberculosis patient
[39] = system: Pseudomonas aeruginosa; assay: Antimicrobial activity against Pseudomonas aeruginosa 22D2 tracheal isolates from mechanically ventilated chronic respiratory insufficiency patient
[40] = system: Pseudomonas aeruginosa; assay: Antimicrobial activity against Pseudomonas aeruginosa 22D6 tracheal isolates from mechanically ventilated chronic respiratory insufficiency patient
[41] = system: Pseudomonas aeruginosa; assay: Antimicrobial activity against Pseudomonas aeruginosa 24D1 tracheal isolates from mechanically ventilated chronic respiratory insufficiency patient
[42] = system: Pseudomonas aeruginosa; assay: Antimicrobial activity against Pseudomonas aeruginosa 24F4 tracheal isolates from mechanically ventilated chronic respiratory insufficiency patient
[43] = system: Pseudomonas aeruginosa; assay: Antimicrobial activity against Pseudomonas aeruginosa 65.18-1 tracheal isolates from mechanically ventilated tuberculosis patient
[44] = system: Pseudomonas aeruginosa; assay: Antimicrobial activity against Pseudomonas aeruginosa 65.18-2 tracheal isolates from mechanically ventilated tuberculosis patient
[45] = system: Pseudomonas aeruginosa; assay: Antimicrobial activity against Pseudomonas aeruginosa 65.18-3 tracheal isolates from mechanically ventilated tuberculosis patient
[46] = system: Pseudomonas aeruginosa; assay: Antimicrobial activity against Pseudomonas aeruginosa IA5 tracheal isolates from mechanically ventilated tuberculosis patient
[47] = system: Pseudomonas aeruginosa; assay: Antimicrobial activity against Pseudomonas aeruginosa IC7 tracheal isolates from mechanically ventilated tuberculosis patient
[48] = system: Pseudomonas aeruginosa; assay: Antimicrobial activity against Pseudomonas aeruginosa 2A1 tracheal isolates from mechanically ventilated tuberculosis patient

GENTAMICIN
inactive: Activity [1] | Activity [32] | Activity [33] | Activity [34] | Activity [35] | Activity [36]
active: Activity [2] | Activity [3] | Activity [4] | Activity [5] | Activity [6] | Activity [7] | Activity [8] | Activity [9] | Activity [10] | Activity [11] | Activity [12] | Activity [13] | Activity [14] | Activity [15] | Activity [16] | Activity [17] | Activity [18] | Activity [19] | Activity [20] | Activity [21] | Activity [22] | Antimicrobial activity [23] | Activity [24] | Activity [25] | Activity [26] | Activity [27] | Activity [28] | Activity [29] | Activity [30] | Activity [31]

CC(C)(O/N=C(\C(=O)N[C@@H]1C(=O)N2C(C(=O)[O-])=C(C[n+]3ccccc3)CS[C@H]12)c1csc(N)n1)C(=O)O
inactive: Activity [35]
active: Activity [2] | Activity [3] | Activity [37] | Activity [38] | Activity [4] | Activity [5] | Activity [6] | Activity [7] | Activity [8] | Activity [9] | Activity [10] | Activity [12] | Activity [13] | Activity [14] | Activity [15] | Activity [16] | Activity [17] | Activity [18] | Activity [19] | Activity [21] | Activity [22] | Antimicrobial activity [23] | Activity [24] | Activity [39] | Activity [40] | Activity [25] | Activity [26] | Activity [41] | Activity [27] | Activity [28] | Activity [29] | Activity [30] | Activity [31] | Activity [42] | Activity [43] | Activity [44] | Activity [45] | Activity [46] | Activity [47] | Activity [33] | Activity [34]

NCC[C@H](O)C(=O)N[C@@H]1C[C@H](N)[C@@H](O[C@H]2O[C@H](CN)[C@@H](O)[C@H](O)[C@H]2O)[C@H](O)[C@H]1O[C@H]1O[C@H](CO)[C@@H](O)[C@H](N)[C@H]1O
inactive: Activity [1] | Activity [32] | Activity [34] | Activity [35] | Activity [36]
active: Activity [2] | Activity [3] | Activity [48] | Activity [37] | Activity [4] | Activity [5] | Activity [6] | Activity [7] | Activity [8] | Activity [9] | Activity [10] | Activity [11] | Activity [12] | Activity [13] | Activity [14] | Activity [15] | Activity [16] | Activity [17] | Activity [18] | Activity [19] | Activity [20] | Activity [21] | Activity [22] | Antimicrobial activity [23] | Activity [24] | Activity [39] | Activity [40] | Activity [25] | Activity [26] | Activity [41] | Activity [27] | Activity [28] | Activity [29] | Activity [30] | Activity [31] | Activity [42] | Activity [46]
